The record followed here is patent US12371668B2, “Methods for tissue generation” (priority 2018, dated 2025).

Entries after “also recorded” stand apart in the source; their conditions may differ.

Data set [1] has as its system ventricular Biowires created from BJ1D iPSCs and HES3 ESCs. The data set is described as follows: Dynamic force recordings of ventricular Biowires under stimulation. The format is cell-based, human. Conditions: FIG. 2G. How it is done: Blue channel image sequences were analyzed using a custom MatLab code that traced the maximum deflection of the POMaC wire. Average tissue width (diameter) and width of the tissue on the polymer wire (Tw) were measured from still frames of the 4× bright field video of the tissue in the relaxed position (FIGS. 8C-8D). Total (at peak contraction) and passive (at rest) POMaC wire deflections were converted to force measurements (μN) using the force calibration curves described in the previous section. The final readouts for the total and passive tension of tissue were then interpolated according to the Tw and custom tip sizes. The active force was calculated as the difference between the total and passive tension (FIG. 2C). The custom MatLab code was used to calculate the passive tension, active force, contraction and relaxation duration, and upstroke and relaxation velocity. To investigate the contractile effects of various compounds on the tissues, a custom testing chamber was fabricated in a 6-well plate modified with an extraction/injection port connected to a 5 mL syringe, a pair of carbon electrodes (set 1 cm apart) with platinum wire lead attachments and a custom 3D-printed holder for a polystyrene chip with a single microwell. Prior to testing, the tissue was transferred to the custom testing chamber and placed in the environmental chamber on the microscope stage (37° C., 5% CO2), where it was allowed to equilibrate for 30 min in the presence of electrical field stimulation (1 Hz, at ET). A bright field video of the tissue was taken before testing to obtain all the necessary measurements for the force calculation. For testing, the voltage was increased to 10% above the ET, and videos were taken of one polymer wire (10× objective). Prior to the test compound injection, media were extracted and injected through the port twice at 10 min intervals to pre-condition the tissue to the testing process. Compounds were diluted in media at concentrations 1000-fold higher than the desired final concentration. For compound testing, ⅓^rd of the media was extracted from the chamber, the compound was added to the extracted media and then injected back into the testing chamber. After 10-15 min, videos in the blue channel were recorded. The procedure was repeated for sequential drug dosages. The videos were analyzed using the custom MatLab software, as indicated for the weekly FFR assessments.

Data set [2] has as its system ventricular tissues derived from BJ1D iPSC-CM. The data set is described as follows: Intracellular action potential recordings in ventricular Biowires. It is filed as cell-based, human. Conditions: for responses on action potentials: ventricular Biowires, FIGS. 12E-12N. As to the method:
Tissues were perfused with 35-37° C. […] They were paced at twice the ET. The action potential was recorded with high impedance microelectrodes (60-90 MΩ) filled with 3M KCl, connected to an Axopatch 200B amplifier (Axon Instruments). Recordings were performed in current clamp mode at 2 kHz and signals were analyzed using the Clampfit 10 Data Analysis Module of the pCLAMP™ 10 Electrophysiology Data Acquisition & Analysis Software (Axon Instruments). The movement of the tissue was minimized by perfusing with 10 μM blebbistatin (Toronto Research Chemicals) for 20 min. The effect of various compounds on the action potential was assessed by preparing an appropriate dilution of the compound in Krebs's Solution or DMEM.

Data set [3] deals with atrial tissues derived from Hes3 hESC-CM. The data set is described as follows: Intracellular action potential recordings in atrial Biowires. The format is cell-based, human. As to the method: Tissues were perfused with 35-37° C. Kreb's Solution (118 mM NaCl, 4.2 mM KCl, 1.2 mM KH2PO4, 1.2 mM MgSO4, 1.8 mM CaCl2, 23 mM NaHCO3, 2 mM Na-pyruvate and 20 mM glucose, equilibrated with 95% 02 and 5% CO2, pH 7.4) or DMEM medium. They were paced at twice the ET. The action potential was recorded with high impedance microelectrodes (60-90 MΩ) filled with 3M KCl, connected to an Axopatch 200B amplifier (Axon Instruments). Recordings were performed in current clamp mode at 2 kHz and signals were analyzed using the Clampfit 10 Data Analysis Module of the pCLAMP™ 10 Electrophysiology Data Acquisition & Analysis Software (Axon Instruments). The movement of the tissue was minimized by perfusing with 10 μM blebbistatin (Toronto Research Chemicals) for 20 min. The effect of various compounds on the action potential was assessed by preparing an appropriate dilution of the compound in Krebs's Solution or DMEM.

In data set [4] the test system is atrial region of heteropolar Biowires (Hes3 hESC). The data set can be described thus: Optical mapping of impulse propagation in atrioventricular Biowires, atrial region. The note with it: 1 μM. The format is cell-based, human. How it is done: (§1) To generate atrioventricular tissues, dissociated atrial cardiac cells and cardiac fibroblasts were mixed in a 10:1.5 cell number ratio. Dissociated ventricular cells and cardiac fibroblasts were mixed in a 10:1.5 cell number ratio. The mixed cells were pelleted and resuspended at a concentration of 5.75×10^7 cells/mL in collagen hydrogel. When seeding, cell-hydrogel mixture containing atrial CMs (1 μL) were seeded on one side of the Biowire II well first, followed by mixture containing ventricular CMs (1 μL) seeded on the other side. After seeding, tissues were cultured for 7 days to allow for remodeling and compaction around the POMaC wires.
(§2) For atrioventricular preparations, electrical stimulation started at 2 Hz on day 7 and the protocol of 1 Hz weekly step-up was used until the frequency reached 6 Hz. If average MCR exceeded 4 Hz after one week of 2 Hz stimulation, or exceeded 5 Hz after one week of 3 Hz stimulation, stimulation frequency could be changed directly from 2 Hz to 4 Hz or 3 Hz to 5 Hz to accelerate the process. […]
(§3) Tissues were perfused with 5 μM voltage sensitive dye, Di-4-ANEPPS (Invitrogen), in Kreb's Solution at 35-37° C. for 20 min. Dye fluorescence was recorded on an MVX-10 Olympus fluorescence microscope (Olympus Corporation) equipped with a charged coupled device (CCD) (Cascade 128, Photometrics). […]

Data set [5] deals with ventricular portions of heteropolar Biowires (Hes3 hESC). The data set can be described thus: Optical mapping of impulse propagation in atrioventricular Biowires, ventricular region. The format is cell-based, human. The note with it: 1 μM, listed as Ranolazine. How it is done:
as §1, §2, §3

Data set [6] in a line: Long-term absorption test, Biowire chips. The format is physicochemical. As to the method:
(§4) For the long-term absorption test, polystyrene strips containing microwells and POMaC wires, with and without the adhesive, were cut into chips (9 mm×9 mm×1 mm) containing a single microwell. Chips of the same geometry were also made using PDMS. The polystyrene and PDMS chips were incubated in 1 mL Rhodamine B (1 μM; Sigma-Aldrich) in a 24 well-plate at 37° C. for up to 1 wk. Tissue culture treated 24 well-plates were incubated with the dye in the absence of any chips as a control. At 6 h, 24 h, 48 h, and 1 wk, 100 μL of the dye solution was transferred to a 96-well plate and the fluorescence was read using a SpectraMax i3 plate reader (Molecular Devices; λex=540 nm, λem=625 nm), (n=3). Additionally, fluorescent images of the chips were taken in the absence of treatment, after 1 wk of dye incubation, and after 2 h of washing following 1 wk of dye incubation.

Data set [7] can be described thus: Long-term absorption test, PDMS chips. The note with it: 1 wk incubation then washout for 2 hours. It is filed as physicochemical. How it is done:
as §4

Data set [8] relates to atrial end of heteropolar atrio-ventricular Biowires (Hes3 hESC). The data set is described as follows: Calcium transients in atrioventricular Biowires, atrial end. It is filed as cell-based, human. How it is done: as §1, with “wires. […]” for “wires.”
To investigate the relative changes of intracellular calcium concentration, tissues were incubated with the calcium dye Fluo-4 NW (Thermo Fisher) for 30 min at 37° C. prior to testing. To obtain both calcium transients and contractility readouts consecutively and synchronously, the testing process was performed using both green light channel (λex=490 nm, λem=525 nm) and/or blue channel at 10× or 4× magnification. […] The ratio of peak tissue fluorescence intensity to baseline intensity, dF/F0 was calculated to determine the relative changes in intracellular calcium in the presence of the compound. For the consecutive force and calcium transient readouts, contractile measurements were extracted from the blue channel as described before. […]

For data set [9], the system named is atrial tissue derived from Hes3 hESC-CM. The data set is described as follows: Force and calcium transient measurement in atrial Biowires. It is filed as cell-based, human. The note with it: atrial preparations, increasing concentrations. As to the method:
To investigate the contractile effects of various compounds on the tissues, a custom testing chamber was fabricated in a 6-well plate modified with an extraction/injection port connected to a 5 mL syringe, a pair of carbon electrodes (set 1 cm apart) with platinum wire lead attachments and a custom 3D-printed holder for a polystyrene chip with a single microwell. Prior to testing, the tissue was transferred to the custom testing chamber and placed in the environmental chamber on the microscope stage (37° C., 5% CO2), where it was allowed to equilibrate for 30 min in the presence of electrical field stimulation (1 Hz, at ET). […] After 10-15 min, videos in the blue channel were recorded. […] The videos were analyzed using the custom MatLab software, as indicated for the weekly FFR assessments.
(§5) To investigate the relative changes of intracellular calcium concentration, tissues were incubated with the calcium dye Fluo-4 NW (Thermo Fisher) for 30 min at 37° C. prior to testing. […] The ratio of peak tissue fluorescence intensity to baseline intensity, dF/F0 was calculated to determine the relative changes in intracellular calcium in the presence of the compound. For the consecutive force and calcium transient readouts, contractile measurements were extracted from the blue channel as described before. […]

In data set [10] the test system is ventricular tissue derived from BJ1D iPSC-CM. The data set is described as follows: Force and calcium transient measurement in ventricular Biowires. It is filed as cell-based, human. How it is done:
To investigate the contractile effects of various compounds on the tissues, a custom testing chamber was fabricated in a 6-well plate modified with an extraction/injection port connected to a 5 mL syringe, a pair of carbon electrodes (set 1 cm apart) with platinum wire lead attachments and a custom 3D-printed holder for a polystyrene chip with a single microwell. Prior to testing, the tissue was transferred to the custom testing chamber and placed in the environmental chamber on the microscope stage (37° C., 5% CO2), where it was allowed to equilibrate for 30 min in the presence of electrical field stimulation (1 Hz, at ET). A bright field video of the tissue was taken before testing to obtain all the necessary measurements for the force calculation. For testing, the voltage was increased to 10% above the ET, and videos were taken of one polymer wire (10× objective). Prior to the test compound injection, media were extracted and injected through the port twice at 10 min intervals to pre-condition the tissue to the testing process. […] For compound testing, ⅓^rd of the media was extracted from the chamber, the compound was added to the extracted media and then injected back into the testing chamber. After 10-15 min, videos in the blue channel were recorded. The procedure was repeated for sequential drug dosages. The videos were analyzed using the custom MatLab software, as indicated for the weekly FFR assessments.
as §5, with “before. For the synchronous readouts, the contractile measurements were extracted from the green channel videos using modified version of the ImageJ SpotTracker plugin.” for “before.”

[11] abbreviates: atrial Biowires, low doses (25 μM).

On to `COc1ccc([C@@H]2Sc3ccccc3N(CCN(C)C)C(=O)[C@@H]2OC(C)=O)cc1` [diltiazem], for which the “changes in the active forces and beat patterns” value (“changes” for short) in data set [1] is reported as “produces negative inotropic effects”.

`CN(CCOc1ccc(NS(C)(=O)=O)cc1)CCc1ccc(NS(C)(=O)=O)cc1` [dofetilide]: the “responses on action potentials” value in data set [2] is listed as “predictable responses”.

Consider `C[N+](C)(C)CCOC(N)=O` [carbachol], for which the “APDs (action potential durations)” value in data set [3] (atrial Biowires) is listed as “abbreviated APDs; also recorded: shortened atrial APDs only”; in data set [2] (ventricular tissues), “without affecting these parameters”.

With `COc1ccccc1OCC(O)CN1CCN(CC(=O)Nc2c(C)cccc2C)CC1` (centres unmarked) [ranolazine], the conduction velocity entry in data set [4] is given as “significantly slowed down”; in data set [4] (listed as Ranolazine), “decreased conduction velocity”; in data set [5], “without affecting”.

On to `Nc1ccncc1` [4AP, 4-aminopyridine], for which, in [3] (setting [11]), the APD30 result is given as “prolonged” and the action potential amplitudes result was “increased”. For the same compound, the AP duration entry in [3] (atrial tissues, very low concentrations (<50 μM)) is reported as “prolonged”. Besides, the APD result in data set [2] (ventricular tissues, higher doses) is recorded as “did prolong APD”. Moreover, in data set [2] (ventricular tissues, low doses (25 μM)), the “action potential amplitudes and APD30” value is recorded as “without measurable effects”.

`CCN(CC)CC(=O)Nc1c(C)cccc1C` [lidocaine]: the “changes” value in data set [1] is “inhibits tissue electrical excitability”.

Regarding `Cc1[nH]c(=O)c(C#N)cc1-c1ccncc1` [milrinone], in data set [1], the “changes” value was “enhances contractility”.

`CCN(CC)c1ccc2c(-c3ccccc3C(=O)O)c3ccc(=[N+](CC)CC)cc-3oc2c1.[Cl-]` [Rhodamine B]: the “fluorescence levels in solution versus PDMS chips” value in [6] (1 μM dye, 37° C., incubation 24 hours and longer) was “remained higher than in PDMS chips”. The entries for the “fluorescence in chip after washout” value in [6] (1 wk incubation then washout for 2 hours) and in data set [7] were “undetectable” and “remained widespread”, respectively. Moreover, the “levels versus tissue plastic well controls” value in data set [6] (after 6 hours) is “not significantly different”.

On to `NCCc1c[nH]c2ccc(O)cc12` [serotonin], for which the “Ca2+ transients” value in [8] is “increased; also recorded: positive inotropic effect”.

On to `C/C=C(/C)C(=O)O[C@H]1C(C)=C2[C@H]([C@@H]1OC(=O)CCCCCCC)[C@@](C)(OC(C)=O)C[C@H](OC(=O)CCC)[C@@]1(O)[C@H]2OC(=O)[C@@]1(C)O` [thapsigargin], for which the “force and Ca′ transient amplitudes” value is given as “dose-dependently decreased” in data set [9] and “dose-dependently decreased” in [10] (ventricular preparations, increasing concentrations). The “potency in ventricular versus atrial preparations” value in [10] (decrease of force and Ca′ transient amplitudes) is on record as “higher potency in ventricle”. In data set [10] (ventricular Biowires, low pacing rates), the “time-to-peak and decay rates of both force and Ca2+” value is “prolonged”.

Turning to `COc1ccc(CCN(C)CCCC(C#N)(c2ccc(OC)c(OC)c2)C(C)C)cc1OC` (centres unmarked) [verapamil], in [2], the “responses on action potentials” value is recorded as “predictable responses”.

Take `Cc1cccc(CCN2CCC(C(=O)c3ccc(NS(C)(=O)=O)cc3)CC2)n1` [E-4031]: the “changes” value in data set [1] is “promotes spontaneous irregular beating patterns consistent with arrhythmias”.

As for `CC(C)NCC(O)c1ccc(O)c(O)c1` (centres unmarked) [isoproterenol], the “changes” value in data set [1] is “increases contractility”.
